The record followed here is PubChem BioAssay AID1259418 (Broad Institute, 2018).

Values joined by “and” are separate entries in the source; they are usually repeats but may differ in a detail not shown here. Equal values may be shown once. Results filed as inconclusive are left out. Active and inactive are the calls of the source.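 How the source made its calls: active means fitted half-maximal concentration of signal decrease at or below twice the sample's top tested concentration; inconclusive means flat curve between -70 and -30 percent, or poor fit; inactive means flat within 30 percent, signal rise, or potency above limit.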 Bounds are passed on as bounds.

This assay has as its target T. gondii ME49Luc in IFN-y HeLa, luciferase, 72 h. The assay is described as follows: inhibitors of Toxoplasma growth in IFN-γ-primed HeLa – cell-based, ME49Luc, luciferase, 72 h, dose response (AID 1259418).
By AC50 is commonly meant the midpoint of the concentration-response curve, whichever way the signal moves. Consider `CCCNC(=O)N1C[C@@H]2N[C@H](C1)C2c1ccc(-c2cccc(F)c2)cc1` (stereo partly specified), for which the AC50 was 18.2 µM.

Regarding `CCc1nc(OCC(=O)NCc2ccc(SC)cc2)c2ccccc2n1`, the AC50 is > 39 µM (inactive). The figure for `Cc1ccc(CNC2=NCCNC23CCN(S(=O)(=O)c2ccc(C)c(C)c2)CC3)cc1` is 7.83 µM; for `C[C@@H]1CN([C@@H](C)CO)C(=O)Cc2cc(NC(=O)C3CCCCC3)ccc2O[C@@H]1CN(C)Cc1ccc(Cl)c(Cl)c1` it is 15.1 µM and 5.01 µM.

In the case of `COc1cccc(-c2nc3c(s2)CN(S(=O)(=O)c2ccc(C)cc2)CC3)c1`, the half-maximal activity concentration (AC50) was 25.9 µM.

As for `COc1ccc(CNC2=NCCNC23CCN(S(=O)(=O)c2ccc(C)cc2C)CC3)cc1`, the concentration at half-maximal activity (AC50) was 18.6 µM. The figure for `NC(N)=N/N=C/c1c(Cl)cccc1Cl` is 19.7 µM; for `Cc1nc(CCNC(=O)[C@H]2CCCN2C(=O)c2cccc(F)c2)cs1` it is 29.2 µM; for `Cc1ccc(C(=O)Nc2c(C(=O)NCc3ccccn3)[nH]c3ccc(C)cc23)cc1` it is 25.3 µM.

Turning to `Cc1ccc(-c2coc(-c3ccc(NC(=O)Nc4cc(F)ccc4F)cc3)n2)cc1`, the concentration at half-maximal activity (AC50) is 27.7 µM. Take `Cc1ccc(NC(=O)N2CCN(Cc3nc(-c4cccc(Cl)c4)oc3C)CC2)cc1F`: the AC50 is 7.24 µM. Under `CCc1cnc(N2[C@@H](C#N)[C@@H](c3ccc(C#Cc4ccccc4F)cc3)[C@@H]2CO)s1` stands 17.2 µM. The figure for `COc1ccccc1NS(=O)(=O)c1cc2c3c(c1)CCC(=O)N3CCC2` is 25.4 µM; for `Cc1ccc(-c2csc(-c3cccn3CC(=O)NCCN3CCC(C)CC3)n2)cc1` it is 6.43 µM; for `O=C(NCCc1csc(-c2ccccc2)n1)[C@H]1CCCN1C(=O)CCc1ccccc1` it is > 39 µM (inactive). The figure for `COc1ccc(-c2nc(C)c(-c3ccc(SCc4cccc(C(F)(F)F)c4)nn3)s2)cc1` is > 39 µM (inactive); for `O=C(CCc1ccccc1)N1CCC2(CC1)Nc1ccc(Cl)cc1-n1cccc12` it is 27.4 µM; for `C/C=C/c1ccc(C2[C@H]3CNC[C@@H]2N3C(=O)NC2CCCCC2)cc1` (stereo partly specified) it is 9.23 µM and 7.74 µM. For the molecule `O=C1CCc2cc(NC(=O)c3ccccc3F)ccc2N1`, the AC50 was 29.7 µM. On to `O=C1NCC(=O)N2CCN(C(=O)Nc3cc(Cl)cc(Cl)c3)CC12` (stereo unspecified), for which the AC50 is 20.3 µM. Under `Cc1ccc(-c2coc(-c3ccc(NS(=O)(=O)c4ccc(F)c(Cl)c4)cc3)n2)c(C)c1` stands 24.7 µM.

For the molecule `CCc1ccc(S(=O)(=O)N2CCC3(CC2)NCCN=C3NCc2cccc(F)c2)cc1`, the concentration at half-maximal activity (AC50) is 16.3 µM. Under `COc1ccc(-c2nc(NCCCN3CCCCC3C)c3ccccc3n2)cc1` (stereo unspecified) stands 13.9 µM; under `O=C(C[C@H]1CC[C@H]2[C@@H](COC[C@@H](O)CN2Cc2cc(F)ccc2F)O1)NCc1ccc(Oc2ccccc2)cc1`, 27.3 µM; under `CN(C)C(=O)COCc1cncc2c1CCN(c1ccccn1)C2`, 6.26 µM. Under `CN(C)c1nc(N2CCCC2)nc2c1CCN(Cc1ccoc1)CC2` stands 16 µM; under `COc1cccc(-c2nc(C)c(-c3ccc(SCc4cccc(Cl)c4)nn3)s2)c1`, 11.1 µM; under `O=C(Cc1ccccn1)N1CC(=O)N2[C@@H](CO)[C@@H](c3ccc(C#CCC4CCCC4)cc3)[C@@H]2C1`, 13.2 µM. The figure for `C[C@H](O[C@H]1OCCN(Cc2n[nH]c(=O)[nH]2)[C@H]1c1ccc(F)cc1)c1cc(C(F)(F)F)cc(C(F)(F)F)c1` is 15.4 µM; for `O=C(CCC1N=C2c3ccccc3N=C(SCc3cccc(F)c3)N2C1=O)NCc1cccs1` (stereo unspecified) it is 20.3 µM; for `CO[C@@H]1CCN(S(=O)(=O)N(C)C)C[C@@H]1Cc1cccc(C)c1` it is 23.5 µM.

In the case of `Cc1ccc(-c2nc(CN(c3ccccc3)S(=O)(=O)c3cccs3)c(C)o2)cc1`, the AC50 is 10.8 µM. The figure for `COc1ccc(N(Cc2nc(-c3ccc(C)cc3)oc2C)S(=O)(=O)c2ccc(C)cc2)cc1` is 13.2 µM; for `Fc1cccc(CSc2nc(NCc3ccc(Cl)cc3)c3ccccc3n2)c1` it is 14 µM; for `COCCN(CCOC)C(=O)c1cc2c(c3ccccc3n2CC2CC2)n1-c1ncccn1` it is 28 µM. The figure for `CCOc1ccc(-c2nc(CN(c3ccc(OC)cc3)S(=O)(=O)c3cccs3)c(C)o2)cc1` is 8.01 µM and 17.4 µM.

In the case of `Cc1ccc(CNC(=O)CC2Nc3c4ccccc4nc(=S)n3C2=O)cc1` (stereo unspecified), the AC50 is 31.5 µM.

Turning to `COc1cccc(-c2nc3c(s2)CN(C(=O)Nc2ccc(C)c(F)c2)CC3)c1`, the half-maximal activity concentration (AC50) is 13.1 µM. Under `CCC(=O)N1CC[C@@H]2[C@H]1c1cc(C#Cc3ccccc3F)ccc1N[C@@H]2CO` stands 29.2 µM; under `Cc1cc(C)cc(S(=O)(=O)N2CCC3(CC2)NCCN=C3NCc2ccc(C(F)(F)F)cc2)c1`, 6.65 µM. Under `O=C(Nc1ccc(F)cc1)N1CC(=O)N2[C@@H](CO)[C@@H](c3ccc(-c4cccc(F)c4)cc3)[C@@H]2C1` stands 18.5 µM; under `Cc1ccc(-c2nc(Cn3nnc(-c4nc(-c5cccs5)no4)c3C)c(C)o2)cc1`, 3.2 µM. On to `Cc1ccc(CNc2nc(-c3ccc(Cl)cc3)nc3ccccc23)cc1`, for which the AC50 was 37 µM.

With `O=C(Nc1ccc(F)cc1)N1CC(=O)N2[C@H](CO)[C@@H](c3ccc(-c4cccc(F)c4)cc3)[C@@H]2C1`, the AC50 is 19.9 µM. `O=C(c1cnccn1)N1CC(=O)N2[C@H](C1)[C@H](c1ccc(/C=C/c3ccccc3)cc1)[C@@H]2CO`: the concentration at half-maximal activity (AC50) is 11.9 µM and 23.5 µM. For the molecule `O=S(=O)(c1ccccc1)N1CCCCN2[C@@H](CO)[C@@H](c3ccc(C#CC4CCCC4)cc3)[C@@H]2C1`, the concentration at half-maximal activity (AC50) was 17.5 µM and 6.86 µM. Under `COc1ccccc1C#Cc1ccc([C@H]2[C@@H](CO)N3CCCCN(C(=O)C4CCC4)C[C@@H]23)cc1` stands 18.8 µM.

Regarding `COc1cccc(S(=O)(=O)N2CCCCN3[C@H](C2)[C@H](c2ccc(C#CCC(C)C)cc2)[C@@H]3CO)c1`, the AC50 was 9.96 µM and 8.54 µM. Under `COc1ccc(-c2nc(Nc3ccc(CN4CCC(C)CC4)cc3)c3ccccc3n2)cc1` stands 9.71 µM and 14.6 µM.

Consider `COc1ccc(N2CC(NC(=O)C(=O)c3c[nH]c4ccccc34)CC2=O)cc1` (stereo unspecified), for which the concentration at half-maximal activity (AC50) is 28.3 µM. The figure for `CCCNC(=O)C[C@H]1CC[C@H]2[C@@H](COC[C@@H](O)CN2C(=O)Nc2ccc(Cl)c(Cl)c2)O1` is 25.9 µM; for `Cc1ccc(C)c(NC(=O)N2CCN(Cc3nc(-c4cccc(Cl)c4)oc3C)CC2)c1` it is > 39 µM (inactive).

On to `O=C1CCc2cc(S(=O)(=O)N3CCc4ccccc4C3)cc3c2N1CCC3`, for which the AC50 was 31.1 µM. The figure for `COc1cc2nc(N3CCN(C(=O)c4ccco4)CC3)nc(N)c2cc1OC` is 18.4 µM. The figure for `CCCNC(=O)N1[C@H](C#N)[C@H](c2ccc(-c3ccccc3F)cc2)[C@@H]1CO` is 3.6 µM. Consider `CCCN(C/C=C/I)C1CCc2cccc(O)c2C1` (stereo unspecified), for which the concentration at half-maximal activity (AC50) was 30.9 µM. The figure for `O=S(=O)(c1cccs1)N1CCC2(CC1)NCCN=C2NCc1ccc(C(F)(F)F)cc1` is 23 µM. The figure for `CCCCCCCCCCCCCCCC[N+](C)(C)C` is 16.3 µM. On to `Cc1nc(-c2cccc(-c3noc(C(=O)NCCCN4CCC(C)CC4)n3)c2)cs1`, for which the AC50 was > 39 µM (inactive). In the case of `Cc1cccc(C(=O)N2CCC(C(=O)NCCc3csc(C)n3)CC2)c1`, the concentration at half-maximal activity (AC50) is 26.4 µM. Under `Cc1cccc(-c2ccc([C@@H]3[C@H](CO)N4CCCCN(S(=O)(=O)c5ccccc5F)C[C@@H]34)cc2)c1` stands 16.6 µM and 10.7 µM.
